± gives the expanded uncertainty stated by the source.

The nature of the first series: refractive index (Na D-line) (dimensionless). To be noted: 298.15 K; 101.33 kPa; Liquid.
With `CCO` [ethanol], the refractive index is given as 1.3608 ± 0.0012.

For `CC1CCCCC1` [methylcyclohexane], the refractive index was 1.4217 ± 0.0013.

For `CCCO` [propan-1-ol], the refractive index is listed as 1.384 ± 0.0012.

For the compound `CC(C)O` [propan-2-ol], the refractive index came to 1.3765 ± 0.0012.

The same series, now with this note: 303.15 K; 101.33 kPa; Liquid.
As for `CCO` [ethanol], the refractive index is 1.3589 ± 0.0012.

In the case of `CC1CCCCC1` [methylcyclohexane], the refractive index was determined as 1.4192 ± 0.0013.

`CCCO` [propan-1-ol]: the refractive index is recorded as 1.3819 ± 0.0012.

Turning to `CC(C)O` [propan-2-ol], the refractive index stood at 1.3741 ± 0.0012.

The series is the same for the next values; noted with them: 308.15 K; 101.33 kPa; Liquid.
As for `CCO` [ethanol], the refractive index was found to be 1.3563 ± 0.0012.

With `CC1CCCCC1` [methylcyclohexane], the refractive index is listed as 1.4163 ± 0.0013.

In the case of `CCCO` [propan-1-ol], the refractive index is listed as 1.38 ± 0.0012.

As for `CC(C)O` [propan-2-ol], the refractive index amounted to 1.3716 ± 0.0012.

Assay in another series: not given
As to conditions: 298.15 K; 101 kPa; Liquid.
As to `CCO` [ethanol], the mass density came to 785.66 ± 7.9 kg/m3 and the viscosity was 1.083 ± 0.013 mPa·s.

Turning to `CC1CCCCC1` [methylcyclohexane], the mass density is recorded as 764.99 ± 7.7 kg/m3 and the viscosity is reported as 0.6757 ± 0.0095 mPa·s.

Take `CCCO` [propan-1-ol]: the mass density is on record as 809.65 ± 8.1 kg/m3 and the viscosity is 2.077 ± 0.024 mPa·s.

For `CC(C)O` [propan-2-ol], the mass density was found to be 781.05 ± 7.8 kg/m3 and the viscosity is given as 2.076 ± 0.024 mPa·s.

Staying with this series, now noted: 298.15 K; 101 kPa; Liquid; Linear variable-path acoustic interferometer.
With `CCO` [ethanol], the speed of sound was determined as 1161 ± 4 m/s.

On to `CC1CCCCC1` [methylcyclohexane], for which the speed of sound came to 1217 ± 4 m/s.

Turning to `CCCO` [propan-1-ol], the speed of sound is on record as 1206 ± 4 m/s.

In the case of `CC(C)O` [propan-2-ol], the speed of sound is listed as 1144 ± 4 m/s.

Staying with this series, now noted: 303.15 K; 101 kPa; Liquid.
`CCO` [ethanol]: the mass density was determined as 781.34 ± 7.8 kg/m3 and the viscosity is listed as 0.985 ± 0.012 mPa·s.

Regarding `CC1CCCCC1` [methylcyclohexane], the mass density was found to be 760.66 ± 7.6 kg/m3 and the viscosity is 0.631 ± 0.0089 mPa·s.

For `CCCO` [propan-1-ol], the mass density was 805.5 ± 8.1 kg/m3 and the viscosity is 1.809 ± 0.022 mPa·s.

As for `CC(C)O` [propan-2-ol], the mass density is 776.79 ± 7.8 kg/m3 and the viscosity was found to be 1.786 ± 0.021 mPa·s.

Staying with this series, now noted: 308.15 K; 101 kPa; Liquid.
On to `CCO` [ethanol], for which the mass density is 776.99 ± 7.8 kg/m3 and the viscosity came to 0.8954 ± 0.011 mPa·s.

As to `CC1CCCCC1` [methylcyclohexane], the mass density turned out to be 756.3 ± 7.6 kg/m3 and the viscosity is recorded as 0.5902 ± 0.0085 mPa·s.

`CCCO` [propan-1-ol]: the mass density is on record as 801.32 ± 8 kg/m3 and the viscosity is on record as 1.595 ± 0.019 mPa·s.

As for `CC(C)O` [propan-2-ol], the mass density was 772.43 ± 7.7 kg/m3 and the viscosity was 1.532 ± 0.018 mPa·s.

In general, refractive index refers to a measure of how strongly the sample bends light. What is called mass density is the mass of a sample divided by its volume. By viscosity is commonly meant the internal friction of a fluid under shear. As usually defined, the speed of sound is the propagation velocity of pressure waves in the medium.
